ChEMBL document CHEMBL5634167, “Insights into the structure-activity relationship of the anticancer compound ZJ-101: A role played by the amide moiety” (Bioorg Med Chem Lett, 2024)

Experiments:
Format in all cases: functional, cell-based
HCT-116 = test: Antiproliferative activity against human HCT-116 cells assessed inhibition of cell growth incubated for 72 hrs by alamar blue assay; details: HCT-116, 72 h
MCF7 = test: Antiproliferative activity against human MCF7 cells assessed inhibition of cell growth incubated for 72 hrs by alamar blue assay; details: MCF7, 72 h
MDA-MB-231 = test: Antiproliferative activity against human MDA-MB-231 cells assessed inhibition of cell growth incubated for 72 hrs by alamar blue assay; details: MDA-MB-231, 72 h

| Structure (SMILES) | IC50 (HCT-116) | IC50 (MCF7) | IC50 (MDA-MB-231) |
| --- | --- | --- | --- |
| CC(=O)N[C@H](C)[C@@H](O)[C@@H](C)[C@@H]1OC(=O)/C=C/C=C(C)\C=C\[C@]2(C)CCC=C[C@@H]2/C=C(C)/C=C/[C@H]1C | 88.2 nM |  |  |
| CC1=C/C=C/C(=O)O[C@@H]([C@H](C)[C@H](O)[C@@H](C)NS(C)(=O)=O)[C@H](C)/C=C/C(C)=C/[C@H]2C=CCC[C@@]2(C)\C=C\1 | 3360 nM | 1120 nM | 1010 nM |
| COC(=O)N[C@H](C)[C@@H](O)[C@@H](C)[C@@H]1OC(=O)/C=C/C=C(C)\C=C\[C@]2(C)CCC=C[C@@H]2/C=C(C)/C=C/[C@H]1C | > 5000 nM | > 2000 nM | > 2000 nM |
| CNC(=O)N[C@H](C)[C@@H](O)[C@@H](C)[C@@H]1OC(=O)/C=C/C=C(C)\C=C\[C@]2(C)CCC=C[C@@H]2/C=C(C)/C=C/[C@H]1C | 136 nM | 88.5 nM | 104 nM |
| CC1=C/C=C/C(=O)O[C@@H]([C@H](C)[C@H](O)[C@@H](C)NC(=O)C(C)C)[C@H](C)/C=C/C(C)=C/[C@H]2C=CCC[C@@]2(C)\C=C\1 | 47.5 nM | 41.4 nM | 64 nM |
